These results are taken from patent US9174952B2, “Substituted 3-thiazoloamino-propionic acid derivatives and their use as pharmaceuticals” (SANOFI, priority 2011, dated 2015).

Broadly, the IC50 is the concentration that inhibits the measured activity by half.

The structures appear in SMILES notation.

In this assay the target is T1, Recombinant human cathepsin A (Homo sapiens, UniProt P10619).
T1 construct: Recombinant human cathepsin A (residues 29-480, with a C-terminal 10-His tag); 10-His (C); purchased R&D Systems 1049-SE
T1 sequence (P10619 29-326 limits assumed): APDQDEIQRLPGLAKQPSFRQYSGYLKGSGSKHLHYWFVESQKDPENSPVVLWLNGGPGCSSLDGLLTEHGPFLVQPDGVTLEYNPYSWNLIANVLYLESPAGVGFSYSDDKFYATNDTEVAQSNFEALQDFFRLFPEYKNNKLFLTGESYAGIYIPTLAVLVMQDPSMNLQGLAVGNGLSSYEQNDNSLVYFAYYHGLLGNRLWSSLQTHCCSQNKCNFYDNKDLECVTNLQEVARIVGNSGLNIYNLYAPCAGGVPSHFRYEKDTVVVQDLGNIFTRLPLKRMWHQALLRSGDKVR
T1 sequence (P10619 327-480 limits assumed): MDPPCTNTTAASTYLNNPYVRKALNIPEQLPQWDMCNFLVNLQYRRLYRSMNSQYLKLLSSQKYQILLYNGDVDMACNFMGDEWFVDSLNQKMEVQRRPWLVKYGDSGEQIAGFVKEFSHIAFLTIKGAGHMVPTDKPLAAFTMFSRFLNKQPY
Description: Cathepsin A inhibitory activity. To be noted: activated recombinant human cathepsin A 833 ng/ml, Bodipy FL-labeled bradykinin substrate 2 μM, pH 5.5, room temperature. It counts as biochemical. The method, then:
a) Cathepsin A Inhibitory Activity
Recombinant human cathepsin A (residues 29-480, with a C-terminal 10-His tag; R&D Systems, #1049-SE) was proteolytically activated with recombinant human cathepsin L (R&D Systems, #952-CY). Briefly, cathepsin A was incubated at 10 μg/ml with cathepsin L at 1 μg/ml in activation buffer (25 mM 2-(morpholin-4-yl)-ethanesulfonic acid (MES), pH 6.0, containing 5 mM dithiothreitol (DTT)) for 15 min at 37° C. Cathepsin L activity was then stopped by the addition of the cysteine protease inhibitor E-64 (N-(trans-epoxysuccinyl)-L-leucine-4-guanidinobutylamide; Sigma-Aldrich, # E3132; dissolved in activation buffer/DMSO) to a final concentration of 10 μM.
The activated cathepsin A was diluted in assay buffer (25 mM MES, pH 5.5, containing 5 mM DTT) and mixed with the test compound (dissolved in assay buffer containing (v/v) 3% DMSO) or, in the control experiments, with the vehicle in a multiple assay plate. After incubation for 15 min at room temperature, as substrate then bradykinin carrying an N-terminal ®Bodipy FL (4,4-difluoro-5,7-dimethyl-4-bora-3a,4a-diaza-s-indacene-3-propionyl) label (JPT Peptide Technologies GmbH; dissolved in assay buffer) was added to the mixture. The final concentration of cathepsin A was 833 ng/ml and the final concentration of labeled bradykinin 2 μM. After incubation for 15 min at room temperature the reaction was stopped by the addition of stop buffer (130 mM 2-(4-(2-hydroxy-ethyl)-piperazin-1-yl)-ethanesulfonic acid, pH 7.4, containing (v/v) 0.013% ®Triton X-100, 0.13% Coating Reagent 3 (Caliper Life Sciences), 6.5% DMSO and 20 μM ebelactone B (Sigma, # E0886)).
Uncleaved substrate and product were then separated by a microfluidic capillary electrophoresis on a LabChip® 3000 Drug Discovery System (12-Sipper-Chip; Caliper Life Sciences) and quantified by determination of the respective peak areas. Substrate turnover was calculated by dividing product peak area by the sum of substrate and product peak areas, and the enzyme activity and the inhibitory effect of the test compound thus quantified. From the percentage of inhibition of cathepsin A activity observed with the test compound at several concentrations, the inhibitory concentration IC50, i.e. the concentration which effects 50% inhibition of enzyme activity was, calculated.
Consider `Cc1ccccc1-c1nc(C(=O)N[C@@H](CC(=O)O)c2ccccc2)cs1` [Example 113, (S)-3-Phenyl-3-[(2-o-tolyl-thiazole-4-carbonyl)-amino]-propionic acid], for which the half-maximal inhibitory concentration (IC50) stood at 322 nM. Then `Cc1ccccc1-c1nc(C(=O)N[C@@H](CC(=O)O)c2ccc(Cl)cc2Cl)cs1` [Example 21, (S)-3-(2,4-Dichloro-phenyl)-3-[(2-o-tolyl-thiazole-4-carbonyl)-amino]-propionic acid], with 886 nM; and `COc1cccc([C@H](CC(=O)O)NC(=O)c2csc(-c3ccccc3F)n2)c1` [Example 85, (S)-3-{[2-(2-Fluoro-phenyl)-thiazole-4-carbonyl]-amino}-3-(3-methoxy-phenyl)-propionic acid], with 878 nM; and `O=C(O)C[C@H](NC(=O)c1csc(-c2ccccc2F)n1)c1cccc(Cl)c1` [Example 43, (S)-3-(3-Chloro-phenyl)-3-{[2-(2-fluoro-phenyl)-thiazole-4-carbonyl]-amino}-propionic acid], with 694 nM. The result for `O=C(O)C[C@H](NC(=O)c1csc(-c2cccc(Cl)c2)n1)c1ccccc1Cl` [Example 31, (S)-3-(2-Chloro-phenyl)-3-{[2-(3-chloro-phenyl)-thiazole-4-carbonyl]-amino}-propionic acid] reads 703 nM. In the case of `O=C(O)C[C@H](NC(=O)c1csc(-c2ccc(C(F)(F)F)cc2)n1)c1ccc(Cl)cc1Cl` [Example 25, (S)-3-(2,4-Dichloro-phenyl)-3-{[2-(4-trifluoromethyl-phenyl)-thiazole-4-carbonyl]-amino}-propionic acid], the concentration for half-maximal inhibition (IC50) is 6370 nM. Take `O=C(O)CC(NC(=O)c1csc(-c2cccc(Cl)c2Cl)n1)C1CCCCC1` (centres unmarked) [Example 130, 3-Cyclohexyl-3-{[2-(2,3-dichloro-phenyl)-thiazole-4-carbonyl]-amino}-propionic acid]: the IC50 worked out at 1100 nM.

In the case of `O=C(O)C[C@H](NC(=O)c1csc(-c2ccccc2Cl)n1)c1cccc(Cl)c1` [Example 42, (S)-3-(3-Chloro-phenyl)-3-{[2-(2-chloro-phenyl)-thiazole-4-carbonyl]-amino}-propionic acid], the half-inhibitory concentration (IC50) was found to be 238 nM. The result for `O=C(NCC(C(=O)O)c1ccccc1)c1csc(-c2ccccc2F)n1` (centres unmarked) [Example 121, 3-{[2-(2-Fluoro-phenyl)-thiazole-4-carbonyl]-amino}-2-phenyl-propionic acid] reads 12600 nM; that for `O=C(O)C[C@H](NC(=O)c1csc(-c2ccc(C(F)(F)F)cc2)n1)c1cccc(Cl)c1Cl` [Example 16, (S)-3-(2,3-Dichloro-phenyl)-3-{[2-(4-trifluoromethyl-phenyl)-thiazole-4-carbonyl]-amino}-propionic acid], 3020 nM. Then `COc1cccc([C@H](CC(=O)O)NC(=O)c2csc(-c3ccccc3Cl)n2)c1` [Example 79, (S)-3-{[2-(2-Chloro-phenyl)-thiazole-4-carbonyl]-amino}-3-(3-methoxy-phenyl)-propionic acid], with 705 nM; and `Cc1ccccc1[C@H](CC(=O)O)NC(=O)c1csc(-c2cccc(Cl)c2Cl)n1` [Example 71, (S)-3-{[2-(2,3-Dichloro-phenyl)-thiazole-4-carbonyl]-amino}-3-o-tolyl-propionic acid], with 126 nM; and `O=C(O)C[C@H](NC(=O)c1csc(-c2ccccc2F)n1)c1ccccc1` [Example 88, (S)-3-{[2-(2-Fluoro-phenyl)-thiazole-4-carbonyl]-amino}-3-phenyl-propionic acid], with 923 nM. As for `COc1cccc([C@H](CC(=O)O)NC(=O)c2csc(-c3ccccc3F)n2)c1OC` [Example 19, (S)-3-(2,3-Dimethoxy-phenyl)-3-{[2-(2-fluoro-phenyl)-thiazole-4-carbonyl]-amino}-propionic acid], the IC50 was determined as 875 nM. The result for `O=C(NCC(C(=O)O)c1ccccc1)c1csc(-c2ccccc2)n1` (centres unmarked) [Example 115, 2-Phenyl-3-[(2-phenyl-thiazole-4-carbonyl)-amino]-propionic acid] reads 4880 nM. The result for `O=C(O)C[C@H](NC(=O)c1csc(-c2ccc(C(F)(F)F)cc2)n1)c1ccccc1Cl` [Example 33, (S)-3-(2-Chloro-phenyl)-3-{[2-(4-trifluoromethyl-phenyl)-thiazole-4-carbonyl]-amino}-propionic acid] reads 3110 nM; that for `O=C(O)C[C@H](NC(=O)c1csc(-c2ccccc2)n1)c1cccc(F)c1` [Example 48, (S)-3-(3-Fluoro-phenyl)-3-[(2-phenyl-thiazole-4-carbonyl)-amino]-propionic acid], 955 nM; that for `O=C(O)C[C@H](NC(=O)c1csc(-c2ccccc2F)n1)c1cccc(Cl)c1Cl` [Example 15, (S)-3-(2,3-Dichloro-phenyl)-3-{[2-(2-fluoro-phenyl)-thiazole-4-carbonyl]-amino}-propionic acid], 209 nM. The result for `O=C(O)C[C@H](NC(=O)c1nc(-c2ccccc2)cs1)c1ccc(C(F)(F)F)cc1` [Example 97, (S)-3-[(4-Phenyl-thiazole-2-carbonyl)-amino]-3-(4-trifluoromethyl-phenyl)-propionic acid] reads 406 nM. As to `O=C(O)C[C@H](NC(=O)c1csc(-c2cccc(Cl)c2Cl)n1)c1ccccc1C(F)(F)F` [Example 66, (S)-3-{[2-(2,3-Dichloro-phenyl)-thiazole-4-carbonyl]-amino}-3-(2-trifluoromethyl-phenyl)-propionic acid], the IC50 stood at 619 nM. The result for `O=C(O)C[C@@H](Cc1ccccc1)NC(=O)c1nc(-c2ccccc2)cs1` [Example 1, (R)-4-Phenyl-3-[(4-phenyl-thiazole-2-carbonyl)-amino]-butyric acid] reads 1710 nM. For `O=C(N[C@@H](Cc1ccc(Cl)cc1)C(=O)O)c1csc(-c2ccccc2Cl)n1` [Example 81, (S)-3-(4-Chloro-phenyl)-2-{[2-(2-chloro-phenyl)-thiazole-4-carbonyl]-amino}-propionic acid], the IC50 was > 10000 nM. Then `O=C(O)C[C@H](NC(=O)c1csc(-c2ccccc2Cl)n1)c1ccccc1Cl` [Example 29, (S)-3-(2-Chloro-phenyl)-3-{[2-(2-chloro-phenyl)-thiazole-4-carbonyl]-amino}-propionic acid], with 100 nM; and `O=C(O)C[C@H](NC(=O)c1csc(-c2ccc(Cl)cc2)n1)c1cccc(F)c1` [Example 105, (S)-3-{[2-(4-Chloro-phenyl)-thiazole-4-carbonyl]-amino}-3-(3-fluoro-phenyl)-propionic acid], with 2960 nM; and `Cc1ccccc1[C@H](CC(=O)O)NC(=O)c1csc(-c2ccccc2F)n1` [Example 87, (S)-3-{[2-(2-Fluoro-phenyl)-thiazole-4-carbonyl]-amino}-3-o-tolyl-propionic acid], with 117 nM. The result for `Cc1ccccc1[C@H](CC(=O)O)NC(=O)c1csc(-c2ccc(C(F)(F)F)cc2)n1` [Example 112, (S)-3-o-Tolyl-3-{[2-(4-trifluoromethyl-phenyl)-thiazole-4-carbonyl]-amino}-propionic acid] reads 1310 nM.

`O=C(O)CC(NC(=O)c1nc(-c2ccccc2)cs1)c1ccccc1Cl` (centres unmarked) [Example 68, 3-(2-Chloro-phenyl)-3-[(4-phenyl-thiazole-2-carbonyl)-amino]-propionic acid]: the IC50 was determined as 455 nM. `Cc1ccccc1-c1nc(C(=O)N[C@@H](CC(=O)O)c2ccccc2F)cs1` [Example 34, (S)-3-(2-Fluoro-phenyl)-3-[(2-o-tolyl-thiazole-4-carbonyl)-amino]-propionic acid]: the IC50 came out at 313 nM. Then `Cc1ccccc1-c1nc(C(=O)N[C@@H](CC(=O)O)c2cccc(Cl)c2Cl)cs1` [Example 12, (S)-3-(2,3-Dichloro-phenyl)-3-[(2-o-tolyl-thiazole-4-carbonyl)-amino]-propionic acid], with 85 nM.
